Measured values: US20110124574A1, “RESTORATION OF ESTROGEN RECEPTOR-(ALPHA) ACTIVITY” (priority 2008, published 2011)
Where no end group is shown, it is not given here. The star is where a group is joined. For = O=C*

B1: recombinant Wnt-3a: recombinant Wnt-3a protein (R&D Systems), specificity control (protein, UniProt P56704 19-352, looked up)
Protein Wnt-3a: SYPIWWSLAVGPQYSSLGSQPILCASIPGLVPKQLRFCRNYVEIMPSVAEGIKIGIQECQHQFRGRRWNCTTVHDSLAIFGPVLDKATRESAFVHAIASAGVAFAVTRSCAEGTAAICGCSSRHQGSPGKGWKWGGCSEDIEFGGMVSREFADARENRPDARSAMNRHNNEAGRQAIASHMHLKCKCHGLSGSCEVKTCWWSQPDFRAIGDFLKDKYDSASEMVVEKHRESRGWVETLRPRYTYFKVPTERDLVYYEASPNFCEPNPETGSFGTRDRTCNVSSHGIDGCDLLCCGRGHNARAERRREKCRCVFHWCCYVSCQECTRVYDVHTCK

Test system: ERα
Assay: ERα protein expression by Western blot in stimulated MDA-MB-231 cells
Assay type: cell-based, human
Conditions: stimulation 24 and 48 hours, rWnt-5a 0.6 μg/ml, rWnt-3a 0.1 μg/ml, peptides 100 μM
Procedure: Breast cancer cells were grown in 6 well plates, and stimulated with recombinant Wnt-5a protein (rW5a), the Wnt-5a derived Foxy-5 peptide (F5), recombinant Wnt-3a protein (rW3a), or a formylated random hexapeptide (Rdm) for 24 or 48 h. Following treatment cells were lysed and subjected to SDS-PAGE, transferred to nitrocellulose membranes and blotted for ERα expression. A: MDA-MB-231 cells stimulated with recombinant Wnt-5a, Foxy-5, Wnt-3a, Rdm. B: MDA-MB-468 cells stimulated with recombinant Wnt-5a or Foxy-5. C: 4T1 cells stimulated with recombinant Wnt-5a or Foxy-5. Positive controls (Pos) were included in order to confirm the correct band size for ERα. Two different positive controls were used: T47D cell lysates known to express ERα and MDA-MB-231 cells transiently transfected with a full length ERα plasmid, resulting in extremely high ERα expression (top row, right panel, third row, right panel).
Stimulation of cells was performed with recombinant Wnt-5a (0.6 μg/ml) and recombinant Wnt-3a (0.1 μg/ml and in a control experiment, 0.6 μg/ml) (R&D Systems Abington, UK) for times as indicated. The Wnt-5a derived formylated hexapeptide, Foxy-5 (formyl-MDGCEL) (SEQ. ID. NO. 1) designed in the laboratory of the inventors, and a formylated random hexapeptide (formyl-MSADVG) (SEQ: ID: NO: 16) were either synthesized by Pepscan Presto (Lelystad, The Netherlands) or Inbiolabs (Tallinn, Estonia). The peptides were purified by RP-HPLC and mass spectrometry, and the >95% pure peptides were synthesized three times. Cells were treated with Foxy-5 or random peptide at a concentration of 100 μM for times as indicated. All other chemicals if not otherwise stated were purchased from Sigma Chemicals (St. Louis, Mo.).
Cells were lysed in Triton lysis buffer (50 mM Tris (pH7.5), 1% Triton x-100, 140 mM NaCl, 0.5 mM EDTA, 0.5 MgCl2, 10 mM NaF) with the addition of fresh leupeptin (1 μg/ml), Pefabloc (2 mM), aprotinin (20 μg/ml) and Na3VO4 (4 mM). […] Scanning and densitometry was performed using a Bio-Rad (Hercules Calif.) GS-800 densitometer with Quantity One software. […]

Row | Molecule | levels of ERα protein
1 | For-MSADVG [formylated random hexapeptide, reference compound] | Neither of these stimulations resulted in increased levels
2 | B1 | Neither of these stimulations resulted in increased levels
